Patent US8269000B2, “Substituted pyrimidine and triazine compounds” (Gruenenthal GmbH, priority 2008, dated 2012)

Target: T1, rat B1R (Rattus norvegicus, UniProt P97583)
T1 construct: expressed in transfected cells; host or cells: CHO K1 cells
T1 sequence (P97583 1-337): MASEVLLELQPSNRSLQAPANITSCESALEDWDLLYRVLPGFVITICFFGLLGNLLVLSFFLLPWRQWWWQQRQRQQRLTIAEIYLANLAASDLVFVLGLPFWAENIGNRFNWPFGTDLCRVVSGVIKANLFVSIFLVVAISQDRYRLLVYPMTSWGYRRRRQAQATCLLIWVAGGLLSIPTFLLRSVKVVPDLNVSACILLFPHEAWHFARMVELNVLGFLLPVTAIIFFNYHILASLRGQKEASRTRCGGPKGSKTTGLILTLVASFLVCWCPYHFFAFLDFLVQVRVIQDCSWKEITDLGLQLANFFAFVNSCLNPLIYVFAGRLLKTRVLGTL
Assay: FLIPR Ca2+ functional study on bradykinin receptor 1 (rB1R CHO K1 cells)
Type: cell-based
Details: % inhibition rat B1R at 10 μM
Method in brief: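 Antagonism was calculated as % of maximal inhibition of the Ca2+ rise triggered by agonist at EC80 (Lys-Des-Arg9-bradykinin for hB1R, Des-Arg9-bradykinin for rB1R), added 10-20 min after test compound (10 μM or serial dilutions for IC50) to Fluo-4-loaded transfected CHO K1 cells on FLIPR. Duplicates or triplicates, ≥2 independent runs.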

% inh. (rat B1R) 10 μM | SMILES
88% | COc1cc(C)c(S(=O)(=O)N(C)C(COc2nccc(N3CCC(c4nc(-c5ccncc5)no4)CC3)n2)c2ccccc2)c(C)c1 (centres unmarked) [G_CC-134]

Same assay, conditions: CHO-K1, % inhibition rat B1R at 10 μM, read-out: % inh. (rat B1R) 10 μM

SMILES | inhibition at 10 µM
COc1cc(C)c(S(=O)(=O)N(C)CCOc2nccc(N3CCC(c4ccccc4)(N(C)C)CC3)n2)c(C)c1 [G_CC-117, N-[2-[4-(4-dimethylamino-4-phenyl-piperidin-1-yl)-pyrimidin-2-yl]oxy-ethyl]-4-methoxy-N,2,6-trimethyl-benzenesulfonic acid amide] | 56%
COc1cc(C)c(S(=O)(=O)N(C)CCOc2nccc(N3CCC(c4cccs4)(N(C)C)CC3)n2)c(C)c1 [G_CC-118, N-[2-[4-(4-dimethylamino-4-thiophen-2-yl-piperidin-1-yl)-pyrimidin-2-yl]oxy-ethyl]-4-methoxy-N,2,6-trimethyl-benzenesulfonic acid amide] | 86%
COc1cc(C)c(S(=O)(=O)N(C)CCOc2nccc(N(C)CCN3CCC(c4ccccc4)(N4CCCC4)CC3)n2)c(C)c1 [G_CC-119, 4-methoxy-N,2,6-trimethyl-N-[2-[4-[methyl-[2-(4-phenyl-4-pyrrolidin-1-yl-piperidin-1-yl)-ethyl]-amino]-pyrimidin-2-yl]oxy-ethyl]benzenesulfonic acid amide] | 79%
CCCCC1(N(C)C)CCN(CCN(C)c2ccnc(OCCN(C)S(=O)(=O)c3c(C)cc(OC)cc3C)n2)CC1 [G_CC-120, N-[2-[4-[2-(4-butyl-4-dimethylamino-piperidin-1-yl)-ethyl-methyl-amino]-pyrimidin-2-yl]oxy-ethyl]-4-methoxy-N,2,6-trimethyl-benzenesulfonic acid amide] | 86%
COc1cc(C)c(S(=O)(=O)N2CC(Oc3nccc(N(C)CCN4CCC(c5ccccc5)(N(C)C)CC4)n3)C2)c(C)c1 [G_CC-123, 2-(4-dimethylamino-4-phenyl-piperidin-1-yl)-ethyl-[2-[1-[(4-methoxy-2,6-dimethyl-phenyl)sulfonyl]-azetidin-3-yl]oxy-pyrimidin-4-yl]-methyl-amine] | 81%
COc1cc(C)c(S(=O)(=O)N2c3ccccc3C[C@H]2COc2nccc(N3CCC(c4cccs4)(N(C)C)CC3)n2)c(C)c1 [G_CC-125, [1-[2-[[(2S)-1-[(4-methoxy-2,6-dimethyl-phenyl)sulfonyl]-2,3-dihydro-1H-indol-2-yl]-methoxy]-pyrimidin-4-yl]-4-thiophen-2-yl-piperidin-4-yl]-dimethyl-amine] | 58%
COc1cc(C)c(S(=O)(=O)N2CC(Oc3nccc(N(C)CCCN4CCC(c5ccccc5)(N(C)C)CC4)n3)C2)c(C)c1 [G_CC-126, 3-(4-dimethylamino-4-phenyl-piperidin-1-yl)-propyl-[2-[1-[(4-methoxy-2,6-dimethyl-phenyl)sulfonyl]-azetidin-3-yl]oxy-pyrimidin-4-yl]-methyl-amine] | 77%
COc1cc(C)c(S(=O)(=O)N2CC(Oc3nccc(N4CCC(O)(c5cccnc5)CC4)n3)C2)c(C)c1 [G_CC-128, 1-[2-[1-[(4-methoxy-2,6-dimethyl-phenyl)sulfonyl]-azetidin-3-yl]oxy-pyrimidin-4-yl]-4-pyridin-3-yl-piperidin-4-ol] | 57%
COc1cc(C)c(S(=O)(=O)N2c3ccccc3C[C@H]2COc2nccc(N3CC4CC3CN4Cc3ccc(F)cc3)n2)c(C)c1 (stereo partly drawn) [G_CC-130, (2S)-2-[[4-[2-[(4-fluorophenyl)-methyl]-2,5-diazabicyclo[2.2.1]heptan-5-yl]-pyrimidin-2-yl]oxy-methyl]-1-[(4-methoxy-2,6-dimethyl-phenyl)sulfonyl]-2,3-dihydro-1H-indole] | 61%
COc1cc(C)c(S(=O)(=O)N(C)C(COc2nccc(N3CCCC3Cc3ccccn3)n2)c2ccccc2)c(C)c1 (centres unmarked) [G_CC-133, 4-methoxy-N,2,6-trimethyl-N-[1-phenyl-2-[4-[2-(pyridin-2-yl-methyl)-pyrrolidin-1-yl]-pyrimidin-2-yl]oxy-ethyl]benzenesulfonic acid amide] | 78%
COc1cc(C)c(S(=O)(=O)N(C)C(COc2nccc(N3CCC(c4cccc(F)c4)(N4CCN(C)CC4)CC3)n2)c2ccccc2)c(C)c1 (centres unmarked) [G_CC-135, N-[2-[4-[4-(3-fluorophenyl)-4-(4-methyl-piperazin-1-yl)-piperidin-1-yl]-pyrimidin-2-yl]oxy-1-phenyl-ethyl]-4-methoxy-N,2,6-trimethyl-benzenesulfonic acid amide] | 53%
COc1cc(C)c(S(=O)(=O)N(C)C(COc2nccc(N3CCC(Oc4ccccn4)CC3)n2)c2ccccc2)c(C)c1 (centres unmarked) [G_CC-136, 4-methoxy-N,2,6-trimethyl-N-[1-phenyl-2-[4-(4-pyridin-2-yloxy-piperidin-1-yl)-pyrimidin-2-yl]oxy-ethyl]benzenesulfonic acid amide] | 81%
COc1cc(C)c(S(=O)(=O)N(C)C(COc2nccc(N3CCC(C)(N4CCOCC4)CC3)n2)c2ccccc2)c(C)c1 (centres unmarked) [G_CC-137, 4-methoxy-N,2,6-trimethyl-N-[2-[4-(4-methyl-4-morpholin-4-yl-piperidin-1-yl)-pyrimidin-2-yl]oxy-1-phenyl-ethyl]benzenesulfonic acid amide] | 77%
COc1cc(C)c(S(=O)(=O)N(C)C(COc2nccc(N(C)CCN3CCC(O)(c4cccnc4)CC3)n2)c2ccccc2)c(C)c1 (centres unmarked) [G_CC-138, N-[2-[4-[2-(4-hydroxy-4-pyridin-3-yl-piperidin-1-yl)-ethyl-methyl-amino]-pyrimidin-2-yl]oxy-1-phenyl-ethyl]-4-methoxy-N,2,6-trimethyl-benzenesulfonic acid amide] | 56%

Second part, the compound after the results:

inhibition at 10 µM | SMILES
81% | COc1cc(C)c(S(=O)(=O)N2CCC[C@H]2COc2nccc(N3CCC(c4ccccc4)(N4CCCC4)CC3)n2)c(C)c1 [G_CC-115, 2-[[(2S)-1-[(4-methoxy-2,6-dimethyl-phenyl)sulfonyl]-pyrrolidin-2-yl]-methoxy]-4-(4-phenyl-4-pyrrolidin-1-yl-piperidin-1-yl)-pyrimidine]
64% | COc1cc(C)c(S(=O)(=O)N(C)CCOc2nccc(N3CCC(c4ccccc4)(N4CCCC4)CC3)n2)c(C)c1 [G_CC-116, 4-methoxy-N,2,6-trimethyl-N-[2-[4-(4-phenyl-4-pyrrolidin-1-yl-piperidin-1-yl)-pyrimidin-2-yl]oxy-ethyl]benzenesulfonic acid amide]
75% | COc1cc(C)c(S(=O)(=O)N2CCCCC2COc2nccc(N3CCC(c4ccccc4)(N4CCCC4)CC3)n2)c(C)c1 (centres unmarked) [G_CC-121, 2-[[1-[(4-methoxy-2,6-dimethyl-phenyl)sulfonyl]-piperidin-2-yl]-methoxy]-4-(4-phenyl-4-pyrrolidin-1-yl-piperidin-1-yl)-pyrimidine]
51% | COc1cc(C)c(S(=O)(=O)N2CC(Oc3nccc(N4CCC(c5ccccc5)(N5CCCC5)CC4)n3)C2)c(C)c1 [G_CC-122, 2-[1-[(4-methoxy-2,6-dimethyl-phenyl)sulfonyl]-azetidin-3-yl]oxy-4-(4-phenyl-4-pyrrolidin-1-yl-piperidin-1-yl)-pyrimidine]
57% | COc1cc(C)c(S(=O)(=O)N2CC(Oc3nccc(N(C)CCN4CCC(c5ccccc5)(N5CCCC5)CC4)n3)C2)c(C)c1 [G_CC-124, [2-[1-[(4-methoxy-2,6-dimethyl-phenyl)sulfonyl]-azetidin-3-yl]oxy-pyrimidin-4-yl]-methyl-[2-(4-phenyl-4-pyrrolidin-1-yl-piperidin-1-yl)-ethyl]amine]
54% | COc1cc(C)c(S(=O)(=O)N2CC(Oc3nccc(N4CCN(CCCN(C)C)CC4)n3)C2)c(C)c1 [G_CC-127, 3-[4-[2-[1-[(4-methoxy-2,6-dimethyl-phenyl)sulfonyl]-azetidin-3-yl]oxy-pyrimidin-4-yl]-piperazin-1-yl]-propyl-dimethyl-amine]
73% | COc1cc(C)c(S(=O)(=O)N2CC(Oc3nccc(N4CCC(CCN5CCCCC5)CC4)n3)C2)c(C)c1 [G_CC-129, 2-[1-[(4-methoxy-2,6-dimethyl-phenyl)sulfonyl]-azetidin-3-yl]oxy-4-[4-(2-piperidin-1-yl-ethyl)-piperidin-1-yl]-pyrimidine]
88% | COc1cc(C)c(S(=O)(=O)N2CCCCC2COc2nccc(N3CCC(C)(N4CCOCC4)CC3)n2)c(C)c1 (centres unmarked) [G_CC-131, 4-[1-[2-[[1-[(4-methoxy-2,6-dimethyl-phenyl)sulfonyl]-piperidin-2-yl]-methoxy]-pyrimidin-4-yl]-4-methyl-piperidin-4-yl]-morpholine]
65% | COc1cc(C)c(S(=O)(=O)N2CCCCC2COc2ccnc(N3CCN(C4CCN(C)CC4)CC3)n2)c(C)c1 (centres unmarked) [H_CC-001, 4-[[1-(4-methoxy-2,6-dimethylphenyl)sulfonyl-2-piperidinyl]methoxy]-2-[4-(1-methyl-4-piperidinyl)-1-piperazinyl]pyrimidine]
77% | COc1cc(C)c(S(=O)(=O)N2CCCCC2COc2ccnc(N3CCC(CCN4CCCC4)CC3)n2)c(C)c1 (centres unmarked) [H_CC-002, 4-[[1-(4-methoxy-2,6-dimethylphenyl)sulfonyl-2-piperidinyl]methoxy]-2-[4-(2-1-pyrrolidinylethyl)-1-piperidinyl]pyrimidine]
58% | COc1cc(C)c(S(=O)(=O)N2CCCCC2COc2ccnc(N3CCN(C)CC3)n2)c(C)c1 (centres unmarked) [H_CC-003, 4-[[1-(4-methoxy-2,6-dimethylphenyl)sulfonyl-2-piperidinyl]methoxy]-2-(4-methyl-1-piperazinyl)pyrimidine]
